Experiments:
[1] = system: PTZ-induced seizures; experiment: Anticonvulsant action in the pentylenetetrazol (PTZ) seizure model after 15-day oral pretreatment; type: in vivo, C57BL/6 male mice
Procedure: The anticonvulsant action of a preparation according to the invention, consisting of alpha-lactalbumin and sodium butyrate, was evaluated in comparison with that of the single components alpha-lactalbumin and sodium butyrate in the above-mentioned animal model, using the convulsant agent pentylenetetrazol
The experiment was carried out on groups of 10 C57BL/6 male mice (Charles River Italy) for each tested dose (control groups of 10 C57BL/6 male mice were also used).
The animals of all groups were subcutaneously administered pentylenetetrazol (65 mg/kg) at the end of a 15-day pretreatment with sodium butyrate, alpha-lactalbumin, alpha-lactalbumin+sodium butyrate or vehicle, i.e. water (control), respectively.
This pretreatment was carried out by oral administration of a solution of either one of sodium butyrate, alpha-lactalbumin, alpha-lactalbumin+sodium butyrate in the vehicle, consisting of water, and of the vehicle (water) alone.
Firstly, three groups of 10 mice were orally administered 30 mg/day, 100 mg/day and 250 mg/day of sodium butyrate respectively, in the form of an aqueous solution contained in the bottle of the cage, for 15 days. The bottle of the cage of the control group (10 mice) only contained water.
On the 16th day, the animals of the four groups were subcutaneously administered 65 mg/kg of pentylenetetrazol.
Then, three groups of 10 mice were orally administered 125 mg/day, 250 mg/day and 375 mg/day of alpha-lactalbumin respectively, in the form of an aqueous solution contained in the bottle of the cage, for 15 days. The bottle of the cage of the control group (10 mice) only contained water.
On the 16th day, the animals of the four groups were subcutaneously administered 65 mg/kg of pentylenetetrazol (PTZ).
Finally, a first group of 10 mice was orally administered 125 mg alpha-lactalbumin+100 mg sodium butyrate per day, a second group of 10 mice was orally administered 250 mg alpha-lactalbumin+100 mg sodium butyrate per day, a third group of 10 mice was orally administered 375 mg alpha-lactalbumin+100 mg sodium butyrate per day, in the form of an aqueous solution contained in the bottle of the cage, for 15 days. The bottle of the cage of the control group (10 mice) only contained water.

[2] = in vivo; cited from earlier work
[3] = system: seizures induced by acoustic stimulation; conditions: after three weeks of treatment; cited from earlier work
[4] = system: audiogenic seizures; experiment: Protection against seizures in experimental models of epilepsy (audiogenic seizures in genetically epilepsy-prone-9 rats); type: in vivo; conditions: different experimental models of epilepsy; no increase on continuing up to 12 days; not dose dependent
Source text: Also the results obtained both in experimental models and in clinical trials confirm the need of repeated administrations for several days.

[5] = cited from earlier work

CCCC(=O)[O-].[Na+] [sodium butyrate, reference compound]
animals that experienced seizures induced by pentylenetetrazol ([1]; sodium butyrate 30, 100 or 250 mg/day oral in drinking water for 15 days, PTZ 65 mg/kg s.c. on day 16, no significant difference from control): 100%
activity towards the seizures induced by pentylenetetrazol ([1]; sodium butyrate alone): devoid of any activity

CCCC(=O)O [butyric acid]
cerebral uptake [2]: ~0.006%

alpha-lactalbumin
duration of protective effect against seizures after suspension of treatment [3]: at least one month
days of repeated administrations until protective action against seizures occurs [4]: at least 6 days
effect on percentage of mice with PTZ-induced seizures ([1]; alpha-lactalbumin 125 mg/day alone, oral for 15 days): does not significantly decrease
animals showing PTZ-induced seizures ([1]; alpha-lactalbumin 375 mg/day oral for 15 days, PTZ 65 mg/kg s.c. on day 16): less than 40%
course of percentage of animals with PTZ-induced seizures over dose ([1]; alpha-lactalbumin 125, 250, 375 mg/day oral for 15 days): decrease in a dose-dependent fashion
time after oral administration to demolition into medium-small peptides in the stomach [5]: 15 min

Reference: US11554162B2, “Pharmaceutical or food supplement preparation based on alpha-lactalbumin” (KOLFARMA S.R.L., priority 2018, dated 2023)
